In PMC6928796, “Near-Infrared Markers based on Bacterial Phytochromes with Phycocyanobilin as a Chromophore” (International Journal of Molecular Sciences, 2019):

What was measured:
iRFP713 [1] = target: T1, iRFP713 (Rhodopseudomonas palustris, UniProt G1FNL7, C15S); assay: absorption and fluorescence spectroscopy; BV/PCB competition; assay type: binding; conditions: not covalent; overnight with both tetrapyrroles, BV to PCB molar ratio 0.02 to 80
T1 construct: gene iRFP

iRFP713 [2] = target: T1, iRFP713; assay: absorption, fluorescence, zinc-stained SDS-PAGE; BV/PCB competition; assay type: binding; conditions: not covalent; apoprotein with 2-fold excess PCB, pH 8.0, 4 °C

SMILES | absorption and fluorescence spectroscopy; BV/PCB competition (iRFP713 [1]) | absorption, fluorescence, zinc-stained SDS-PAGE; BV/PCB competition (iRFP713 [2])
C=CC1=C(C)C(=Cc2[nH]c(C=C3N=C(C=C4NC(=O)C(C)=C4C=C)C(C)=C3CCC(=O)O)c(CCC(=O)O)c2C)NC1=O [BV, biliverdin IXα] | The binding affinity of BV ligand to iRFP713/C15S | 
C/C=C1/C(=C/c2[nH]c(/C=C3N=C(/C=C4\NC(=O)C(CC)=C4C)C(C)=C\3CCC(=O)O)c(CCC(=O)O)c2C)NC(=O)[C@@H]1C [PCB, phycocyanobilin] |  | iRFP713/C15S, lacking the conserved Cys15 residue, forms a fluorescent complex with PCB
